Patent US20260167638A1, “PHARMACEUTICAL COMPOUND, SALTS THEREOF, FORMULATIONS THEREOF, AND METHODS OF MAKING AND USING SAME” (Genentech, Inc., priority 2018, published 2026)
Several values for one entry are separate records, joined by “and”; a condition that tells them apart may be missing. Equal values may be shown once.

Assays:
[1] = Example 20 crossover pharmacokinetics of two oral tablet formulations in dogs under fed conditions; format: in vivo, beagle dogs; design: Plasma concentration of Compound I at 24 hours / Plasma concentration of Compound I at 36 hours / Plasma concentration of Compound I at 0.5 hours / Plasma concentration of Compound I at 1 hour / Plasma concentration of Compound I at 2 hours: unit: ng/mL; conditions: 200 mg tablet PO
Description: (§1) Pharmacokinetics parameters of formulations of Compound I and its salts in dogs were determined by orally administering a test formulation tablet at 200 mg of active (Compound I or salt) per dog.
(§2) Blood samples were taken at various times after administration, plasma prepared, and submitted to analysis for parent drug using a qualified LC-MS-MS assay. Pharmacokinetics parameters derived from the plasma analytical data were determined using non-compartmental analysis.
(§3) Pharmacokinetics of Compound I were determined in pentagastrin-pretreated male beagle dogs following a single oral (PO) administration at 200 mg/tablet/dog in a 2-phase crossover study with a washout period of at least 7 days in between each phase. Six male, non-naive, purebred beagle dogs were used in each phase of the 2-phase crossover study. All dogs were pretreated with pentagastrin (6 μg/kg intramuscular administrations) approximately 30 minutes before test article administration.
Two tablet formulations (nanosuspension and mono-tosylate salt, as described above) of test article were assessed. Phase 1 animals were given tablets containing Compound I nanosuspension. Phase 2 animals were given tablets containing Compound I mono-tosylate salt. Animals in both phases were fasted overnight through approximately 4 hours postdose, and received a 100-mL volume of homogenized Food and Drug Administration (FDA) high fat diet by oral gavage at approximately 30 minutes prior to test article administration, followed by a 7 to 10-mL flush with water. Blood samples were collected pre-dose and at 0.25. 0.5, 1. 2. 4. 8, 24, 36, and 48 hours after the oral dose. Plasma was harvested, and the concentration of Compound I in each plasma sample was determined by an LC/MS/MS assay. The assay lower limit of quantitation was 20 ng/mL for Compound I.
Mean Compound I concentrations measured in plasma were used to construct semi-logarithmic plasma concentration-time curves (FIG. 14). Pharmacokinetic analysis was performed using non-compartmental methods.

[2] = Dissolution and precipitation in pH 6.5 phosphate buffer at 37° C. containing HPMC; format: physicochemical
Text: The inclusion of HPMC in the tablet of Example 16 was to maintain the supersaturation of Compound I API after its mono-tosylate salt dissolves. […]

[3] = Example 21 crossover pharmacokinetics of mono-tosylate and di-tosylate tablets in fasted dogs; format: in vivo, beagle dogs; design: Plasma concentration of Compound I at 0.25 hours: unit: ng/mL; conditions: Example 21, fasted dogs, 200 mg tablet PO
Description: as §1, §2
as §3, with “at 200 mg/tablet per dog in a” for “at 200 mg/tablet/dog in a”, “2-phase crossover designed study, with a” for “2-phase crossover study with a”, “each phase. Five male, non-naive,” for “each phase. Six male, non-naive,”
Two tablet formulations (mono-tosylate and di-tosylate, as described above) of test article were assessed. Animals were fasted overnight prior to PO dosing through approximately 4 hours post-dose. The tablet was administered orally, followed by approximately 10 mL of reverse osmosis water. Phase 1 animals were given tablets containing Compound I mono-tosylate, and phase 2 animals were given tablets containing Compound I di-tosylate salt. Blood samples were collected pre-dose and at 0.25, 0.5. 1. 2, 4, 8, 24, 36, and 48 hours after the oral dose. Plasma was harvested, and the concentration of Compound I in each plasma sample was determined by an LC/MS/MS assay. The assay lower limit of quantitation was 20 ng/mL for Compound I. Mean Compound I concentrations measured in plasma were used to construct semi-logarithmic plasma concentration-time curves (FIG. 1). Pharmacokinetic analysis was performed using non-compartmental methods.

[4] = Example 20, fed dogs (high fat diet), individual subjects, mono-tosylate salt
[5] = Example 20, fed dogs, individual subjects, LLOQ 20 ng/mL, mono-tosylate salt
[6] = male, beagle, dog, plasma, po, 200 mg, Example 20, fed dogs (high fat diet), mean
[7] = individual subjects, LLOQ 20 ng/mL, mono-tosylate salt
[8] = individual subjects, mono-tosylate salt

Structure (SMILES): Cc1ccc(S(=O)(=O)O)cc1.Cn1cc(-c2cn(-c3ccc(OC(F)(F)F)cc3)c(=O)c3ncn(C)c23)cn1 [mono-tosylate, 1-methyl-7-(1-methyl-1H-pyrazol-4-yl)-5-(4-(trifluoromethoxy)phenyl)-1,5-dihydro-4H-imidazo[4,5-c]pyridin-4-one, mono-tosylate salt]
- AUC0-last [1, 4]: 59000 ng·h/mL and 75300 ng·h/mL and 68500 ng·h/mL and 26200 ng·h/mL and 16000 ng·h/mL and 47500 ng·h/mL
- AUC0-rt [1, 4]: 59700 ng·h/mL and 70100 ng·h/mL and 26200 ng·h/mL and 47700 ng·h/mL
- Cmax [1, 4]: 5340 ng/mL and 8590 ng/mL and 5160 ng/mL and 4930 ng/mL and 3490 ng/mL and 5080 ng/mL
- Plasma concentration of Compound I at 48 hours ([1]; Example 20, fed dogs, individual subjects, LLOQ 20 ng/mL): BLQ
- Plasma concentration of Compound I at 0.25 hours [1, 5]: BLQ (4×) and 381 and 41.0
- Plasma concentration of Compound I at 1 hour [1, 5]: 107 and 6070 and 2340 and 3330 and 1200 and 97.9
- Plasma concentration of Compound I at 2 hours [1, 5]: 2010 and 8270 and 5160 and 4930 and 2020 and 5080
- Plasma concentration of Compound I at 4 hours [1, 5]: 5340 and 8590 and 4020 and 3770 and 3490 and 4530
- Plasma concentration of Compound I at 8 hours [1, 5]: 3240 and 4900 and 1480 and 1020 and 1200 and 2920
- Plasma concentration of Compound I at 48 hours ([1]; Example 20, fed dogs, mean, LLOQ 20 ng/mL): BLQ
- tmax ([1]; male, beagle, dog, plasma, po, 200 mg, Example 20, fed dogs (high fat diet), individual subjects): 4 h
- AUC(0-t) [1, 6]: 48800 ng·h/mL
- tmax [1, 6]: 3 h
- AUC ([1]; male, beagle, dog, plasma, po, 200 mg, Example 20, fed dogs (high fat diet), mean, read-out: AUC0-rt): 50900 ng·h/mL
- Cmax ([1]; male, beagle, dog, plasma, po, 200 mg, Example 20, fed dogs (high fat diet), mean, read-out: Cmax): 5430 ng/mL
- concentration at 0.25 h ([1]; male, beagle, dog, plasma, po, 200 mg/tablet/dog, Example 20, fed dogs, mean, LLOQ 20 ng/mL, read-out: Plasma concentration of Compound I at 0.25 hours): 70.3 ng/mL
- concentration at 0.5 h ([1]; male, beagle, dog, plasma, po, 200 mg/tablet/dog, Example 20, fed dogs, mean, LLOQ 20 ng/mL, read-out: Plasma concentration of Compound I at 0.5 hours): 717 ng/mL
- concentration at 1 h ([1]; male, beagle, dog, plasma, po, 200 mg/tablet/dog, Example 20, fed dogs, mean, LLOQ 20 ng/mL, read-out: Plasma concentration of Compound I at 1 hour): 2190 ng/mL
- concentration at 2 h ([1]; male, beagle, dog, plasma, po, 200 mg/tablet/dog, Example 20, fed dogs, mean, LLOQ 20 ng/mL, read-out: Plasma concentration of Compound I at 2 hours): 4580 ng/mL
- concentration at 4 h ([1]; male, beagle, dog, plasma, po, 200 mg/tablet/dog, Example 20, fed dogs, mean, LLOQ 20 ng/mL, read-out: Plasma concentration of Compound I at 4 hours): 4960 ng/mL
- concentration at 8 h ([1]; male, beagle, dog, plasma, po, 200 mg/tablet/dog, Example 20, fed dogs, mean, LLOQ 20 ng/mL, read-out: Plasma concentration of Compound I at 8 hours): 2460 ng/mL
- concentration at 24 h ([1]; male, beagle, dog, plasma, po, 200 mg/tablet/dog, Example 20, fed dogs, mean, LLOQ 20 ng/mL, read-out: Plasma concentration of Compound I at 24 hours): 847 ng/mL
- concentration at 36 h ([1]; male, beagle, dog, plasma, po, 200 mg/tablet/dog, Example 20, fed dogs, mean, LLOQ 20 ng/mL, read-out: Plasma concentration of Compound I at 36 hours): 79.7 ng/mL
- Compound I concentration maintained ([2]; HPMC 5 μg/mL): 160 µg/mL
- maintenance of Compound I supersaturation ([2]; HPMC 1 or 2 μg/mL): did not substantially maintain Compound I supersaturation
- API concentration after dissolution ([2]; absence of HPMC, in 10 minutes): 80 µg/mL
- Plasma concentration of Compound I at 48 hours ([3]; individual subjects, LLOQ 20 ng/mL): BLQ
- Plasma concentration of Compound I at 0.25 hours [3, 7]: 179 and 452 and 100 and 74.0 and 161
- Plasma concentration of Compound I at 0.5 hours [3, 7]: 1180 and 3040 and 1320 and 3170
- Plasma concentration of Compound I at 4 hours [3, 7]: 3550 and 5080 and 7990 and 10200 and 1850
- Plasma concentration of Compound I at 8 hours [3, 7]: 1140 and 3110 and 5060 and 5380 and 378
- Plasma concentration of Compound I at 24 hours [3, 7]: 95.5 and 4080 and 252 and 1050 and 25.7
- Plasma concentration of Compound I at 36 hours [3, 7]: BLQ (3×) and 897 and 74.4
- AUC0-last [3, 8]: 26900 ng·h/mL and 122000 ng·h/mL and 77900 ng·h/mL and 110000 ng·h/mL and 14000 ng·h/mL
- AUC0-rt [3, 8]: 27400 ng·h/mL and 123000 ng·h/mL and 79400 ng·h/mL and 110000 ng·h/mL and 14100 ng·h/mL
- Cmax [3, 8]: 3570 ng/mL and 5940 ng/mL and 9410 ng/mL and 10500 ng/mL and 2960 ng/mL
- Plasma concentration of Compound I at 48 hours ([3]; mean, LLOQ 20 ng/mL): BLQ
- AUC(0-t) ([3]; male, beagle, dog, plasma, po, 200 mg, mean): 70200 ng·h/mL
- AUC ([3]; male, beagle, dog, plasma, po, 200 mg, mean, read-out: AUC0-rt): 70900 ng·h/mL
- Cmax ([3]; male, beagle, dog, plasma, po, 200 mg, mean, read-out: Cmax): 6480 ng/mL
- concentration at 0.25 h ([3]; male, beagle, dog, plasma, po, 200 mg/tablet per dog, mean, LLOQ 20 ng/mL, read-out: Plasma concentration of Compound I at 0.25 hours): 193 ng/mL
- concentration at 0.5 h ([3]; male, beagle, dog, plasma, po, 200 mg/tablet per dog, mean, LLOQ 20 ng/mL, read-out: Plasma concentration of Compound I at 0.5 hours): 1910 ng/mL
- concentration at 1 h ([3]; male, beagle, dog, plasma, po, 200 mg/tablet per dog, mean, LLOQ 20 ng/mL, read-out: Plasma concentration of Compound I at 1 hour): 4690 ng/mL
- concentration at 2 h ([3]; male, beagle, dog, plasma, po, 200 mg/tablet per dog, mean, LLOQ 20 ng/mL, read-out: Plasma concentration of Compound I at 2 hours): 6480 ng/mL
- concentration at 4 h ([3]; male, beagle, dog, plasma, po, 200 mg/tablet per dog, mean, LLOQ 20 ng/mL, read-out: Plasma concentration of Compound I at 4 hours): 5730 ng/mL
- concentration at 8 h ([3]; male, beagle, dog, plasma, po, 200 mg/tablet per dog, mean, LLOQ 20 ng/mL, read-out: Plasma concentration of Compound I at 8 hours): 3010 ng/mL
- concentration at 24 h ([3]; male, beagle, dog, plasma, po, 200 mg/tablet per dog, mean, LLOQ 20 ng/mL, read-out: Plasma concentration of Compound I at 24 hours): 1100 ng/mL
- concentration at 36 h ([3]; male, beagle, dog, plasma, po, 200 mg/tablet per dog, mean, LLOQ 20 ng/mL, read-out: Plasma concentration of Compound I at 36 hours): 486 ng/mL
- tmax ([3]; male, beagle, dog, plasma, mean, read-out: tmax): 2 h
